The source of these data is US20150320709A1, “METHODS AND COMPOSITIONS FOR FACILITATING WEIGHT LOSS BY ADMINISTRATION OF THYROID HORMONES” (priority 2011, published 2015).

Experiment [1] can be described thus: Circulating thyroid hormone labs (FT3, FT4, rT3, TSH) in weight loss program patients on thyroid hormone treatment. In kind it is in vivo, human. An excerpt:
FIG. 1 depicts hormonal responses to a hypocaloric state with subsequent treatment. Note: Time frames and shapes of response curves are approximated. Levels of all four hormones are normal before the diet (Time A). At time between time points B and D, TSH is dropping slightly to signal the thyroid gland to make less thyroid hormone. This drop is the mechanism to decrease metabolism in the hypocaloric state. At point C, free T3 begins to drop as rT3 increases. Also at time point C, different observations have been reported for changes in FT4: in our experience, FT4 also drops as indicated on the graph. In the literature, some report no change, whereas others report an increase in FT4. By the time of the blood sampling (time E), in our experience, patients whose FT3 and FT4 have dropped to the low end of normal (with possible above normal rT3 levels) are those experiencing symptoms of low thyroid. They may have any of the following symptoms: feeling cold, cold hands and feet, elevated diastolic blood pressure secondary to vasoconstriction, fatigue, depression, constipation, hair loss, dry skin, insomnia, as well as others. They have often hit a plateau of weight loss even though they have continued to maintain their hypocaloric diet and exercise program. At point F, we begin treatment with thyroid hormone (for example, T4 with T3, T3 alone, T3 with T2 and T4, or T2 alone. Between points F and G, FT3 and rT3 (and FT4 if T4 was administered) are returning to more normal levels, while TSH plummets, often to undetectable levels. At time point H, symptoms of low thyroid are resolved, the patient has no symptoms of hyperthyroidism, and if rT3 had risen and was treated appropriately, rT3 decreased.
The first patient example is a person, 5′2″, weight 268 lbs, body mass index (BMI) 49 (nl 19-24; overweight 25-29; obesity≧30). Baseline blood pressure was 110/74, blood sugar (BS) was 153 mg/dL 10 days after their first visit. Their medical problems at baseline included obesity, type 2 diabetes mellitus (DM2), high blood pressure (HTN), fatigue, depression, and asthma. Their medications included glipizide 10 mg daily, amitriptyline 50 mg daily, metoprolol 50 mg daily, furosemide 40 mg daily, potassium chloride, lisinopril 10 mg daily, Advair Discus 500/50 twice daily (bid), and montelukast 10 mg daily. They were started on our comprehensive program. Five months after starting their weight loss treatment, they developed symptoms of hypothyroidism with constipation and fatigue. They had lost 28 lbs by this time and was having difficulty losing more weight even though they were eating less than they were before their weight loss treatment began. At the start of treatment, their FT4 was 0.9 ng/dL (nl 0.7-1.48). At the time of their low thyroid symptoms, their FT3 was 2.9 pg/mL (nl 1.71-3.71) and their FT4 was 0.91 ng/dL (nl 0.7-1.48). They were then treated with thyroid hormone (desiccated thyroid with a ratio of T4:T3 of about 4:1) at 60 mg daily for 6 days to acclimate, then increased to 120 mg daily. […] After two years on their weight loss treatment, their weight was 231 lbs. […] We tested for rT3 at this point. Their labs on the 150 mg dose of desiccated thyroid were: rT3 394 pg/mL (nl 90-350), FT3 3.94 pg/mL (nl 1.71-3.71), and FT4 1.24 ng/dL (nl 0.7-1.48). The task of bringing down their rT3 was then addressed. Over a period of a few months, their desiccated thyroid hormone was discontinued and instead the patient was given gradually increasing doses of T3 only, starting at 20 mcg daily and gradually increasing the T3 to 60 mcg bid. Five months after starting on T3 with increasing doses, their weight had dropped to 209 lbs. Their BP was 118/66 mmHg with pulse of 74 on lisinopril 10 mg daily, metoprolol 50 mg bid, and furosemide 40 mg daily. Instead of glipizide, they were taking metformin 500 mg bid. […] Their most recent labs on 60 mcg bid of T3 were FT3 3.8 pg/mL (nl 1.71-3.71), FT4 0.64 ng/dL (nl 0.7-1.48) and rT3 137 pg/mL (nl 90-350). Four months prior to this visit their BS was 125 mg/dl. […]

Experiment [2] in a line: Low thyroid symptoms / clinical status of weight loss program patients on thyroid hormone treatment. In kind it is in vivo, human.
Experiment [3] in a line: Existing thyroid therapy in subjects undergoing a weight loss regimen (general finding). The format is in vivo. The following applies: T4 alone or T3:T4 at ratios of less than 1:2. An excerpt: Such T4 based therapy often serves to increase levels of rT3 and decreases levels of circulating T3, thereby undermining attempts to counter hypothyroidism and effect continued weight loss.

The nature of experiment [4]: Low thyroid symptoms / clinical status of weight loss program patients on thyroid hormone treatment. The format is in vivo, human. To be noted: Patient Example 2; 75 mcg daily, within a few weeks of switch from desiccated thyroid. As to the method:
The first patient example is a person, 5′2″, weight 268 lbs, body mass index (BMI) 49 (nl 19-24; overweight 25-29; obesity≧30). Baseline blood pressure was 110/74, blood sugar (BS) was 153 mg/dL 10 days after their first visit. Their medical problems at baseline included obesity, type 2 diabetes mellitus (DM2), high blood pressure (HTN), fatigue, depression, and asthma. Their medications included glipizide 10 mg daily, amitriptyline 50 mg daily, metoprolol 50 mg daily, furosemide 40 mg daily, potassium chloride, lisinopril 10 mg daily, Advair Discus 500/50 twice daily (bid), and montelukast 10 mg daily. They were started on our comprehensive program. Five months after starting their weight loss treatment, they developed symptoms of hypothyroidism with constipation and fatigue. They had lost 28 lbs by this time and was having difficulty losing more weight even though they were eating less than they were before their weight loss treatment began. At the start of treatment, their FT4 was 0.9 ng/dL (nl 0.7-1.48). At the time of their low thyroid symptoms, their FT3 was 2.9 pg/mL (nl 1.71-3.71) and their FT4 was 0.91 ng/dL (nl 0.7-1.48). They were then treated with thyroid hormone (desiccated thyroid with a ratio of T4:T3 of about 4:1) at 60 mg daily for 6 days to acclimate, then increased to 120 mg daily. […] After two years on their weight loss treatment, their weight was 231 lbs. […] We tested for rT3 at this point. Their labs on the 150 mg dose of desiccated thyroid were: rT3 394 pg/mL (nl 90-350), FT3 3.94 pg/mL (nl 1.71-3.71), and FT4 1.24 ng/dL (nl 0.7-1.48). The task of bringing down their rT3 was then addressed. Over a period of a few months, their desiccated thyroid hormone was discontinued and instead the patient was given gradually increasing doses of T3 only, starting at 20 mcg daily and gradually increasing the T3 to 60 mcg bid. Five months after starting on T3 with increasing doses, their weight had dropped to 209 lbs. Their BP was 118/66 mmHg with pulse of 74 on lisinopril 10 mg daily, metoprolol 50 mg bid, and furosemide 40 mg daily. Instead of glipizide, they were taking metformin 500 mg bid. […] Their most recent labs on 60 mcg bid of T3 were FT3 3.8 pg/mL (nl 1.71-3.71), FT4 0.64 ng/dL (nl 0.7-1.48) and rT3 137 pg/mL (nl 90-350). Four months prior to this visit their BS was 125 mg/dl.
The second patient example is a person, 5′2″, weight 150 lbs, BMI 28 (nl 18.5-24.9; overweight 25-29.9; obesity≧30), with HTN. Their blood pressure was slightly elevated at 148/85 (on lisinopril 5 mg daily). Their medical problems at baseline included history of Hashimoto's thyroiditis, borderline high TSH, elevated lipids, and HTN. Their medications were lisinopril 5 mg daily, estradiol 2 mg daily, and rofecoxib 25 mg daily for osteoarthritis of their large joints. […]

The subject of experiment [5] is thyroid hormone receptors. The following applies: cited from earlier work.

Structures are written as SMILES.

On to `N[C@@H](Cc1cc(I)c(Oc2ccc(O)cc2)c(I)c1)C(=O)O` [T2, 3,5-diiodo-1-thyronine], for which the FT4 in experiment [1] (Patient Example 3, T2 2 mcg SR q AM added, T3 25 mcg b.i.d., normal range 0.93-1.7) is 0.23 ng/dL. For the same compound, the FT3 is 3.2 pg/mL in experiment [1] (Patient Example 3, T2 2 mcg SR q AM added, T3 25 mcg b.i.d., normal range 2.2-4.0) and 2.7 pg/mL in experiment [1] (Patient Example 4, T2 2 mcg twice daily added, T3 50 mcg twice daily, normal range 2.2-4.0). The rT3 in experiment [1] (Patient Example 3, T2 2 mcg SR q AM added, T3 25 mcg b.i.d., normal range 90-350) turned out to be 69 pg/mL. Besides, the reported symptoms entry in experiment [2] (Patient Example 3, T2 2 mcg SR q AM added, T3 25 mcg b.i.d., 10 days after start of T2) is “surfaces of their body were now warm and not numb, and that their skin and hair had improved”; in experiment [2] (Patient Example 4, T2 2 mcg q AM and 8-10 hours later added, T3 reduced to 50 mcg twice daily, nearly two months), “no complaints of fatigue and reported that only a slight coldness persisted”. Moreover, the energy levels result in experiment [2] (Patient Example 3, T2 2 mcg SR q AM added, T3 decreased to 25 mcg b.i.d., two days later) is recorded as “energy levels were normalized”. Also, the low thyroid symptoms entry in experiment [2] (Patient Example 3, over six weeks after starting the T2 regimen) is recorded as “not suffering from any symptoms of low thyroid”.
In the case of `N[C@@H](Cc1cc(I)c(Oc2cc(I)c(O)c(I)c2)c(I)c1)C(=O)O` [T4, (2S)-2-amino-3-[4-(4-hydroxy-3,5-diiododophenoxy)-3,5-diiodophenyl]propanoic acid], in experiment [3], the “correction of thyroid abnormalities and/or hypothyroidism so as to permit continuing weight loss” value was “fails to correct thyroid abnormalities and/or hypothyroidism”. Besides, the low thyroid symptoms entry in experiment [4] was “began to feel tired, cold, and depressed and developed constipation and hair loss”. The compound also displayed a TSH in experiment [1] (Patient Example 2, 75 mcg daily) of 0.91 uIU/mL. For the same compound, the FT4 in experiment [1] (Patient Example 2, 75 mcg daily, nl 0.93-1.70) was 1.07 ng/dL. Moreover, in experiment [1] (Patient Example 2, 75 mcg daily, nl 2.2-4.0), the FT3 came out at 2.3 pg/mL.
As for `N[C@@H](Cc1ccc(Oc2cc(I)c(O)c(I)c2)c(I)c1)C(=O)O` [rT3, reverse triiodothyronine], the “action on thyroid hormone receptors” value in experiment [5] is “does not stimulate thyroid hormone receptors but instead binds to these receptors”.
